Read-outs that look alike come from different tables or passages of the source.
System: HCV Huh-luc/neo-ET replicon cells
Assay: Luciferase-Based HCV Replicon Assay (EC50 (1b))
Type: cell-based
Conditions: Hepatitis C virus
Description: Luciferase-Based HCV Replicon Assay Protocol (EC50 (1b))
The cell culture component of the assay is performed essentially as described by Bartenschlager et al., Hepatology 2002, 35, 694-703, wherein exponentially growing HCV Huh-luc/neo-ET replicon cells were seeded at 6×10^3 cells/well in 96 well assay plate. 24 hours later the cells were treated with various concentrations of compound or combination of compounds in triplicate using both fixed ratios and checkerboard matrices of test agents and cultured for 72 hours. The luciferase activity in the wells was determined using Bright-Glo reagent (Promega, Madison, Wis.) with a luminometer (Wallac 1420 Multilabel HTS Counter Victor 2). The background control was replicon cells treated with 100 nM BILN-2061, an inhibitor of the HCV protease. % Inhibition was determined for each compound concentration in relation to the negative (no compound) control to calculate the EC50(1b).

[1] = HCV Huh-luc/neo-ET replicon cells, 72 hours, luciferase activity, read-out: EC50 (1b)
[2] = HCV Huh-luc/neo-ET replicon cells, 72 hours, luciferase activity, read-out: EC50(1b) concentration
[3] = Huh-luc/neo-ET, 72 h, read-out: EC50 (1b)
[4] = Huh-luc/neo-ET, 72 h, read-out: EC50(1b) concentration

CS(=O)(=O)Nc1ccc2c(c1)S(=O)(=O)NC(C1=C(O)C3C4CC(C5CC54)C3N(Cc3ccc(F)cc3)C1=O)=N2 (racemic) [Example 13, (rac-di-exo,di-exo)-N-{3-[3-(4-Fluoro-benzyl)-6-hydroxy-4-oxo-3-aza-tetracyclo[6.3.1.0^2,7.0^9,11]dodec-5-en-5-yl]-1,1-dioxo-1,2-dihydro-1λ^6-benzo[1,2,4]thiadiazin-7-yl}-methanesulfonamide]
EC50 [1]: < 0.005 µM | EC50 [2]: < 0.025 µM

CS(=O)(=O)Nc1ccc2c(c1)S(=O)(=O)N=C(C1=C(O)[C@@H]3[C@H]4CC[C@H](C4)[C@@H]3N(Cc3ccc(F)cc3Cl)C1=O)N2 [Example 1, (1R,2S,7R,8S)—N-{3-[3-(2-Chloro-4-fluoro-benzyl)-6-hydroxy-4-oxo-3-aza-tricyclo[6.2.1.0^2,7]undec-5-en-5-yl]-1,1-dioxo-1,4-dihydro-1λ^6-benzo[1,2,4]thiadiazin-7-yl}-methanesulfonamide]
EC50 [1]: < 0.005 µM | EC50 [2]: < 0.025 µM

CS(=O)(=O)Nc1ccc2c(c1)S(=O)(=O)N=C(C1=C(O)C3C4CCC(C4)C3N(Cc3ccc(F)c(Cl)c3)C1=O)N2 [Example 2, N-{3-[(1S,2S,7R,8R)-3-(Chloro-4-fluoro-benzyl)-6-hydroxy-4-oxo-3-aza-tricyclo[6.2.1.0^2,7]undec-5-en-5-yl]-1,1-dioxo-1,4-dihydro-1λ^6-benzo[1,2,4]thiadiazin-7-yl}-methanesulfonamide]
EC50 [3]: < 0.005 µM | EC50 [4]: < 0.025 µM

COc1cccc(CN2C(=O)C(C3=NS(=O)(=O)c4cc(NS(C)(=O)=O)ccc4N3)=C(O)[C@@H]3C4CCC(CC4)[C@@H]32)c1 [Example 3, N-{3-[(2S,7R)-6-Hydroxy-3-(3-methoxy-benzyl)-4-oxo-3-aza-tricyclo[6.2.2.0^2,7]dodec-5-en-5-yl]-1,1-dioxo-1,4-dihydro-1λ^6-benzo[1,2,4]thiadiazin-7-yl}-methanesulfonamide]
EC50 [1]: < 0.005 µM | EC50 [2]: < 0.025 µM

CS(=O)(=O)Nc1ccc2c(c1)S(=O)(=O)N=C(C1=C(O)[C@@H]3C4CCC(CC4)[C@@H]3N(Cc3ccc(F)cc3F)C1=O)N2 [Example 4, N-{3-[(2S,7R)-3-(2,4-Difluoro-benzyl)-6-hydroxy-4-oxo-3-aza-tricyclo[6.2.2.0^2,7]dodec-5-en-5-yl]-1,1-dioxo-1,4-dihydro-1λ^6-benzo[1,2,4]thiadiazin-7-yl}-methanesulfonamide]
EC50 [1]: < 0.005 µM | EC50 [2]: < 0.025 µM

CS(=O)(=O)Nc1ccc2c(c1)S(=O)(=O)N=C(C1=C(O)[C@@H]3C4CCC(CC4)[C@@H]3N(Cc3ccc(F)cc3Cl)C1=O)N2 [Example 5, N-{3-[(2S,7R)-3-(2-Chloro-4-fluoro-benzyl)-6-hydroxy-4-oxo-3-aza-tricyclo[6.2.2.0^2,7]dodec-5-en-5-yl]-1,1-dioxo-1,4-dihydro-1λ^6-benzo[1,2,4]thiadiazin-7-yl}-methanesulfonamide]
EC50 [1]: 0.005 to 0.025 µM | EC50 [2]: < 0.025 µM

CS(=O)(=O)Nc1ccc2c(c1)S(=O)(=O)N=C(C1=C(O)[C@@H]3C4CCC(CC4)[C@@H]3N(Cc3ccccc3Br)C1=O)N2 [Example 6, N-{3-[(2S,7R)-3-(2-Bromo-benzyl)-6-hydroxy-4-oxo-3-aza-tricyclo[6.2.2.0^2,7]dodec-5-en-5-yl]-1,1-dioxo-1,4-dihydro-1λ^6-benzo[1,2,4]thiadiazin-7-yl}-methanesulfonamide]
EC50 [1]: < 0.005 µM | EC50 [2]: < 0.025 µM

COc1cc(CN2C(=O)C(C3=NS(=O)(=O)c4cc(NS(C)(=O)=O)ccc4N3)=C(O)[C@@H]3C4CCC(CC4)[C@@H]32)ccc1F [Example 7, N-{3-[(2S,7R)-3-(4-Fluoro-3-methoxy-benzyl)-6-hydroxy-4-oxo-3-aza-tricyclo[6.2.2.0^2,7]dodec-5-en-5-yl]-1,1-dioxo-1,4-dihydro-1λ^6-benzo[1,2,4]thiadiazin-7-yl}-methanesulfonamide]
EC50 [1]: < 0.005 µM | EC50 [2]: < 0.025 µM

CS(=O)(=O)Nc1ccc2c(c1)S(=O)(=O)N=C(C1=C(O)[C@@H]3C4CCC(CC4)[C@@H]3N(Cc3ccc(F)c(Cl)c3)C1=O)N2 [Example 8, N-{3-[(2S,7R)-3-(3-Chloro-4-fluoro-benzyl)-6-hydroxy-4-oxo-3-aza-tricyclo[6.2.2.0^2,7]dodec-5-en-5-yl]-1,1-dioxo-1,4-dihydro-1λ^6-benzo[1,2,4]thiadiazin-7-yl}-methanesulfonamide]
EC50 [1]: < 0.005 µM | EC50 [2]: < 0.025 µM

CC(C)(C)CCN1C(=O)C(C2=NS(=O)(=O)c3cc(NS(C)(=O)=O)ccc3N2)=C(O)[C@@H]2C3CCC(CC3)[C@@H]21 [Example 9, N-{3-[(2S,7R)-3-(3,3-Dimethyl-butyl)-6-hydroxy-4-oxo-3-aza-tricyclo[6.2.2.0^2,7]dodec-5-en-5-yl]-1,1-dioxo-1,4-dihydro-1λ^6-benzo[1,2,4]thiadiazin-7-yl}-methanesulfonamide]
EC50 [1]: < 0.005 µM | EC50 [2]: < 0.025 µM

CS(=O)(=O)Nc1ccc2c(c1)S(=O)(=O)N=C(C1=C(O)[C@@H]3C4CCC(CC4)[C@@H]3N(Cc3ccc(F)c(F)c3)C1=O)N2 [Example 10, N-{3-[(2S,7R)-3-(3,4-Difluoro-benzyl)-6-hydroxy-4-oxo-3-aza-tricyclo[6.2.2.0^2,7]dodec-5-en-5-yl]-1,1-dioxo-1,4-dihydro-1λ^6-benzo[1,2,4]thiadiazin-7-yl}-methanesulfonamide]
EC50 [1]: < 0.005 µM | EC50 [2]: < 0.025 µM

Cc1cc(CN2C(=O)C(C3=NS(=O)(=O)c4cc(NS(C)(=O)=O)ccc4N3)=C(O)[C@@H]3C4CCC(CC4)[C@@H]32)ccc1F [Example 11, N-{3-[(2S,7R)-3-(4-Fluoro-3-methyl-benzyl)-6-hydroxy-4-oxo-3-aza-tricyclo[6.2.2.0^2,7]dodec-5-en-5-yl]-1,1-dioxo-1,4-dihydro-1λ^6-benzo[1,2,4]thiadiazin-7-yl}-methanesulfonamide]
EC50 [1]: < 0.005 µM | EC50 [2]: < 0.025 µM

CS(=O)(=O)Nc1ccc2c(c1)S(=O)(=O)NC(C1=C(O)[C@@H]3C4CCC(CC4)[C@@H]3N(Cc3ccccc3)C1=O)=N2 [Example 12, N-{3-[(2S,7R)-3-Benzyl-6-hydroxy-4-oxo-3-aza-tricyclo[6.2.2.0^2,7]dodec-5-en-5-yl]-1,1-dioxo-1,2-dihydro-1λ^6-benzo[1,2,4]thiadiazin-7-yl}-methanesulfonamide]
EC50 [1]: < 0.005 µM | EC50 [2]: < 0.025 µM

CS(=O)(=O)Nc1ccc2c(c1)S(=O)(=O)NC(C1=C(O)[C@@H]3C4CCC(CC4)[C@@H]3N(Cc3cccc(F)c3)C1=O)=N2 [Example 14, N-{3-[(2S,7R)-3-(3-Fluoro-benzyl)-6-hydroxy-4-oxo-3-aza-tricyclo[6.2.2.0^2,7]dodec-5-en-5-yl]-1,1-dioxo-1,2-dihydro-1λ^6-benzo[1,2,4]thiadiazin-7-yl}-methanesulfonamide]
EC50 [1]: < 0.005 µM | EC50 [2]: < 0.025 µM

CS(=O)(=O)Nc1ccc2c(c1)S(=O)(=O)NC(C1=C(O)[C@@H]3C4CCC(CC4)[C@@H]3N(CC3CCCCC3)C1=O)=N2 [Example 15, N-{3-[(2S,7R)-3-Cyclohexylmethyl-6-hydroxy-4-oxo-3-aza-tricyclo[6.2.2.0^2,7]dodec-5-en-5-yl]-1,1-dioxo-1,2-dihydro-1λ^6-benzo[1,2,4]thiadiazin-7-yl}-methanesulfonamide]
EC50 [1]: 0.005 to 0.025 µM | EC50 [2]: < 0.025 µM

CS(=O)(=O)Nc1ccc2c(c1)S(=O)(=O)NC(C1=C(O)[C@@H]3C4CCC(CC4)[C@@H]3N(Cc3cccs3)C1=O)=N2 [Example 16, N-{3-[(2S,7R)-6-Hydroxy-4-oxo-3-thiophen-2-ylmethyl-3-aza-tricyclo[6.2.2.0^2,7]dodec-5-en-5-yl]-1,1-dioxo-1,2-dihydro-1λ^6-benzo[1,2,4]thiadiazin-7-yl}-methanesulfonamide]
EC50 [1]: 0.005 to 0.025 µM | EC50 [2]: < 0.025 µM

Cc1ccccc1CN1C(=O)C(C2=Nc3ccc(NS(C)(=O)=O)cc3S(=O)(=O)N2)=C(O)[C@@H]2C3CCC(CC3)[C@@H]21 [Example 17, N-{3-[(2S,7R)-6-Hydroxy-3-(2-methyl-benzyl)-4-oxo-3-aza-tricyclo[6.2.2.0^2,7]dodec-5-en-5-yl]-1,1-dioxo-1,2-dihydro-1λ^6-benzo[1,2,4]thiadiazin-7-yl}-methanesulfonamide]
EC50 [1]: 0.005 to 0.025 µM | EC50 [2]: < 0.025 µM

CS(=O)(=O)Nc1ccc2c(c1)S(=O)(=O)NC(C1=C(O)[C@@H]3C4CCC(CC4)[C@@H]3N(Cc3ccc(F)c(F)c3F)C1=O)=N2 [Example 18, N-{3-[(2S,7R)-6-Hydroxy-4-oxo-3-(2,3,4-trifluoro-benzyl)-3-aza-tricyclo[6.2.2.0^2,7]dodec-5-en-5-yl]-1,1-dioxo-1,2-dihydro-1λ^6-benzo[1,2,4]thiadiazin-7-yl}-methanesulfonamide]
EC50 [1]: 0.005 to 0.025 µM | EC50 [2]: < 0.025 µM

CS(=O)(=O)Nc1ccc2c(c1)S(=O)(=O)NC(C1=C(O)[C@@H]3[C@@H]4CC[C@@H](C4)[C@@H]3N(Cc3ccccc3)C1=O)=N2 [Example 20]
EC50 [3]: 0.005 to 0.025 µM | EC50 [4]: < 0.025 µM

CS(=O)(=O)Nc1ccc2c(c1)S(=O)(=O)NC(C1=C(O)[C@@H]3[C@H]4CC[C@H](C4)[C@@H]3N(Cc3cccc(F)c3)C1=O)=N2 [Example 21, N-{3-[(1R,2S,7R,8S)-3-(3-Fluoro-benzyl)-6-hydroxy-4-oxo-3-aza-tricyclo[6.2.1.0^2,7]undec-5-en-5-yl]-1,1-dioxo-1,2-dihydro-1λ^6-benzo[1,2,4]thiadiazin-7-yl}-methanesulfonamide]
EC50 [1]: 0.005 to 0.025 µM | EC50 [2]: < 0.025 µM
